Test results reported in patent US10174035B2, “6-morpholinyl-2-pyrazolyl-9H-purine derivatives and their use as PI3K inhibitors” (Daiichi Sankyo Company, Limited, priority 2015, dated 2019).

target: recombinant PI3K δ enzyme (Homo sapiens (Human), UniProt O00329); assay: In vitro enzyme assay (Kinase-Glo luminescent kinase assay), PI3Kδ; format: biochemical
Summary of the method: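 Each recombinant human PI3K isoform at 2.29 μg/mL with 60 μM PIP2 and 10 μM ATP in HEPES pH 7.4, NaCl, CHAPS, MgCl2, DTT, 2 hours at room temperature. Remaining ATP read by Kinase-Glo luminescence relative to no-enzyme blanks.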

recombinant PI3K δ enzyme, sequence (O00329 whole entry, species assumed, canonical isoform): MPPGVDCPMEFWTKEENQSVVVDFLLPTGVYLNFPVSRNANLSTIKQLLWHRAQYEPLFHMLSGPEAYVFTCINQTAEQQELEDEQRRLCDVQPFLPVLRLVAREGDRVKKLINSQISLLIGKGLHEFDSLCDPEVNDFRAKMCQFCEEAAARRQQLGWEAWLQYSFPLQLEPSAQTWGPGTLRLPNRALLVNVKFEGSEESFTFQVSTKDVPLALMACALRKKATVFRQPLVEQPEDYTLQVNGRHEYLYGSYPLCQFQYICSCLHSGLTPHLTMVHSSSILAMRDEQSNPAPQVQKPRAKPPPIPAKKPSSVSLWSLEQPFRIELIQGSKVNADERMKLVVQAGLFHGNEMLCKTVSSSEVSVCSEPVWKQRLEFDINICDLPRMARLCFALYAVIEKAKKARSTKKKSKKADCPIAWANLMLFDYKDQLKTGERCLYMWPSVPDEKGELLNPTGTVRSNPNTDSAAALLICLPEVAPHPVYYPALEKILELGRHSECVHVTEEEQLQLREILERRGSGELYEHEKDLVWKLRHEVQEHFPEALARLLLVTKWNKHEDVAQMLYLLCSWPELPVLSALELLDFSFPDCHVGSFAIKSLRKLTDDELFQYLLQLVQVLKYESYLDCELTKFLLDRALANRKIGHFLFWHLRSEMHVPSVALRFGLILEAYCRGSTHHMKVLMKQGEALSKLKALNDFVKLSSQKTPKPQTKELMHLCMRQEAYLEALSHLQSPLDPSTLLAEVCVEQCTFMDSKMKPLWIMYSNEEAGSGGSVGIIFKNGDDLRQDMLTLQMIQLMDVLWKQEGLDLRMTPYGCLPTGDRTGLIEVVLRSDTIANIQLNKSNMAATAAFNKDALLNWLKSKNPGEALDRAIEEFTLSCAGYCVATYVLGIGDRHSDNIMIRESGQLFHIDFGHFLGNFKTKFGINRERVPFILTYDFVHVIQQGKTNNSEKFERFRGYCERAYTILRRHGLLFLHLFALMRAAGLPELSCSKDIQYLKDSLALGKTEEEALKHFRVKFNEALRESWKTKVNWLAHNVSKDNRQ
recombinant PI3K δ enzyme, sequence (P27986 whole entry partner, species assumed, canonical isoform): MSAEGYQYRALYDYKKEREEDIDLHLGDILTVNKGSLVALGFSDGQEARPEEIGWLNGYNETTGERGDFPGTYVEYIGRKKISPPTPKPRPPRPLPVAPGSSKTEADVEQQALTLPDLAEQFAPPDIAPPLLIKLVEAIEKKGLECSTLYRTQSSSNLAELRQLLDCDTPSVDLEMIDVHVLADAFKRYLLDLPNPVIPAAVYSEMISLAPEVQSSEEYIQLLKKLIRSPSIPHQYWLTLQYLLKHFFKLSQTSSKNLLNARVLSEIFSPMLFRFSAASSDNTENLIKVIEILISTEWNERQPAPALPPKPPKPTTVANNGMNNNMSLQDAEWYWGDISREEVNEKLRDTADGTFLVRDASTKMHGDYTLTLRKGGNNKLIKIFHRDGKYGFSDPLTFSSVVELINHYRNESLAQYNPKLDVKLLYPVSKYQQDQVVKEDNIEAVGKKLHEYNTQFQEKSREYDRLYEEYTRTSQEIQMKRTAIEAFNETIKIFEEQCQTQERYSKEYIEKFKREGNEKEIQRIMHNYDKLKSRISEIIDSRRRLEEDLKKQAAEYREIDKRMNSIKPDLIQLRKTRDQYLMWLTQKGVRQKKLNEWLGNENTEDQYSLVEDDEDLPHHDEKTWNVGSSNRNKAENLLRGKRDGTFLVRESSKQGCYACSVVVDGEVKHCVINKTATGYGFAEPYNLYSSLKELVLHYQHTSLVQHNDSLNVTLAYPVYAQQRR

IC50 [nM]	SMILES
41	CN(C)C1CCN(C(=O)c2nc3c(N4CCOCC4)cc(-c4cnn(C)c4)nc3[nH]2)CC1 [compound 101, [4-(Dimethylamino)piperidin-1-yl][5-(1-methyl-1H-pyrazol-4-yl)-7-(morpholin-4-yl)-3H-imidazo[4,5-b]pyridin-2-yl]methanone]
147	Cn1cc(-c2cc(N3CCOCC3)c3nc(C(=O)NCCN4CCOCC4)[nH]c3n2)cn1 [compound 103, 5-(1-Methyl-1H-pyrazol-4-yl)-7-(morpholin-4-yl)-N-[2-(morpholin-4-yl)ethyl]-3H-imidazo[4,5-b]pyridine-2-carboxamide]
22	Cc1nn(C)cc1-c1cc(N2CCOCC2)c2nc(C(=O)N3CCC(N4CCOCC4)CC3)n(C)c2n1 [compound 104, [5-(1,3-Dimethyl-1H-pyrazol-4-yl)-3-methyl-7-(morpholin-4-yl)-3H-imidazo[4,5-b]pyridin-2-yl][4-(morpholin-4-yl)piperidin-1-yl]methanone]
32	Cn1cc(-c2nc3[nH]c(C(=O)NCCN4CCOCC4)nc3c(N3CCOCC3)c2F)cn1 [compound 105, 6-Fluoro-5-(1-methyl-1H-pyrazol-4-yl)-7-(morpholin-4-yl)-N-[2-(morpholin-4-yl)ethyl]-3H-imidazo[4,5-b]pyridine-2-carboxamide]
30	Cn1cc(-c2cc(N3CCOCC3)c3nc(C(=O)N4CCC(N5CCOCC5)CC4)n(C)c3n2)cn1 [compound 106, [3-Methyl-5-(1-methyl-1-pyrazol-4-yl)-7-(morpholin-4-yl)-3H-imidazo[4,5-b]pyridin-2-yl][4-(morpholin-4-yl)piperidin-1-yl]methanone]
58	Cc1nn(C)cc1-c1nc2c(nc(C(=O)N3CCC(C(C)(C)O)CC3)n2C)c(N2CCOCC2)c1F [compound 107, [5-(1,3-Dimethyl-1H-pyrazol-4-yl)-6-fluoro-3-methyl-7-(morpholin-4-yl)-3H-imidazo[4,5-b]pyridin-2-yl][4-(2-hydroxypropan-2-yl)piperidin-1-yl]methanone]
131	Cn1cc(-c2nc3c(nc(C(=O)N4CCC5(CC4)COC5)n3C)c(N3CCOCC3)c2F)cn1 [compound 108, [6-Fluoro-3-methyl-5-(1-methyl-1-pyrazol-4-yl)-7-(morpholin-4-yl)-3H-imidazo[4,5-b]pyridin-2-yl](2-oxa-7-azaspiro[3.5]non-7-yl)methanone]
19	C[C@@H]1CN(C2CCN(C(=O)c3nc4c(N5CCOCC5)cc(-c5cnn(C)c5)nc4[nH]3)CC2)C[C@H](C)O1 [compound 109, {4-[cis-2,6-Dimethylmorpholin-4-yl]piperidin-1-yl}[5-(1-methyl-1H-pyrazol-4-yl)-7-(morpholin-4-yl)-3H-imidazo[4,5-b]pyridin-2-yl]methanone]
63	C[C@@H]1CN(C2CCN(C(=O)c3nc4c(N5CCOCC5)cc(-c5cnn(C)c5)nc4n3C)CC2)C[C@H](C)O1 [compound 110, {4-[cis-2,6-Dimethylmorpholin-4-yl]piperidin-1-yl}[3-methyl-5-(1-methyl-1H-pyrazol-4-yl)-7-(morpholin-4-yl)-3H-imidazo[4,5-b]pyridin-2-yl]methanone]
184	Cn1cc(-c2nc3c(nc(C(=O)N4CCC(N5CCOCC5)CC4)n3C)c(N3CCOCC3)c2F)cn1 [compound 111, [6-Fluoro-3-methyl-5-(1-methyl-1-pyrazol-4-yl)-7-(morpholin-4-yl)-3H-imidazo[4,5-b]pyridin-2-yl][4-(morpholin-4-yl)piperidin-1-yl]methanone]
15	Cc1nn(C)cc1-c1nc2c(nc(C(=O)N3CCC(N4C[C@@H](C)O[C@@H](C)C4)CC3)n2C)c(N2CCOCC2)c1F [compound 112, {4-[cis-2,6-Dimethylmorpholin-4-yl]piperidin-1-yl}[5-(1,3-dimethyl-1H-pyrazol-4-yl)-6-fluoro-3-methyl-7-(morpholin-4-yl)-3H-imidazo[4,5-b]pyridin-2-yl]methanone]
72	Cc1nn(C)cc1-c1cc(N2CCOCC2)c2nc(C(=O)N3CCC(N4C[C@@H](C)O[C@@H](C)C4)CC3)n(C)c2n1 [compound 114, {4-[cis-2,6-Dimethylmorpholin-4-yl]piperidin-1-yl}[5-(1,3-dimethyl-1H-pyrazol-4-yl)-3-methyl-7-(morpholin-4-yl)-3H-imidazo[4,5-b]pyridin-2-yl]methanone]
16	Cn1cc(-c2cc(N3CCOCC3)c3nc(C(=O)NCCCN4CCOCC4)[nH]c3n2)cn1 [compound 115, 5-(1-Methyl-1H-pyrazol-4-yl)-7-(morpholin-4-yl)-N-[3-(morpholin-4-yl)propyl]-3H-imidazo[4,5-b]pyridine-2-carboxamide]
122	Cn1cc(-c2cc(N3CCOCC3)c3nc(C(=O)N4CCC(C(C)(C)O)CC4)[nH]c3n2)cn1 [compound 117, [4-(2-Hydroxypropan-2-yl)piperidin-1-yl][5-(1-methyl-1H-pyrazol-4-yl)-7-(morpholin-4-yl)-3H-imidazo[4,5-b]pyridin-2-yl]methanone]
50	C[C@@H]1CN(C2CCN(C(=O)c3nc4c(N5CCOCC5)cc(-c5cn[nH]c5)nc4[nH]3)CC2)C[C@H](C)O1 [compound 118, {4-[cis-2,6-Dimethylmorpholin-4-yl]piperidin-1-yl}[7-(morpholin-4-yl)-5-(1H-pyrazol-4-yl)-3H-imidazo[4,5-b]pyridin-2-yl]methanone]
10	Cn1cc(-c2cc(N3CCOCC3)c3nc(C(=O)N4CC(N5CCOCC5)C4)[nH]c3n2)cn1 [compound 120, [5-(1-Methyl-1H-pyrazol-4-yl)-7-(morpholin-4-yl)-3H-imidazo[4,5-b]pyridin-2-yl][3-(morpholin-4-yl)azetidin-1-yl]methanone]
20	Cn1cc(-c2nc(N3CCOCC3)c3nc(C(=O)N4CCC5(CC4)CNC(=O)C5)[nH]c3n2)cn1 [compound 122, 8-{[2-(1-Methyl-1H-pyrazol-4-yl)-6-(morpholin-4-yl)-9H-purin-8-yl]carbonyl}-2,8-diazaspiro[4.5]decan-3-one]
4	O=C(c1nc2c(N3CCOCC3)c(F)c(-c3c[nH]nc3C(F)(F)F)nc2[nH]1)N1CCC(N2CCOCC2)CC1 [compound 123, {6-Fluoro-7-(morpholin-4-yl)-5-[3-(trifluoromethyl)-1H-pyrazol-4-yl]-3H-imidazo[4,5-b]pyridin-2-yl}[4-(morpholin-4-yl)piperidin-1-yl]methanone]
17	Cn1cc(-c2nc3[nH]c(C(=O)NCCCN4CCOCC4)nc3c(N3CCOCC3)c2F)cn1 [compound 124, 6-Fluoro-5-(1-methyl-1H-pyrazol-4-yl)-7-(morpholin-4-yl)-N-[3-(morpholin-4-yl)propyl]-3H-imidazo[4,5-b]pyridine-2-carboxamide]
43	O=C(c1nc2c(N3CCOCC3)c(F)c(-c3cn[nH]c3)nc2[nH]1)N1CCC(N2CCOCC2)CC1 [compound 125, [6-Fluoro-7-(morpholin-4-yl)-5-(1H-pyrazol-4-yl)-3H-imidazo[4,5-b]pyridin-2-yl][4-(morpholin-4-yl)piperidin-1-yl]methanone]
25	Cn1cc(-c2nc3[nH]c(C(=O)N4CC(N5CCOCC5)C4)nc3c(N3CCOCC3)c2F)cn1 [compound 126, [6-Fluoro-5-(1-methyl-1H-pyrazol-4-yl)-7-(morpholin-4-yl)-3H-imidazo[4,5-b]pyridin-2-yl][3-(morpholin-4-yl)azetidin-1-yl]methanone]
